# Assay results: patent US20200138907A1, “Composition for Use in the Treatment of an Individual Suffering a Condition Necessitating New Bone Formation” (priority 2016, published 2020)
# What was measured:
# [1] = system: rabbits; assay: bone induction in intramuscularly implanted BCP constructs without BMP-2, biomembrane pocket model; format: in vivo, rabbit; conditions: TNF-α 1, 10, 100 ng, no BMP-2, intramuscular, 12 weeks
# Procedure: First, an assessment study was performed to verify the potential for ectopic bone formation in the biomembrane pocket model. […] The bone volume (area%) in the BCP constructs was the primary outcome after 8 (rats) or 12 (rabbits) weeks. Subsequently, the rabbit model (n=11) was used to 1) screen for the potential of inflammatory stimuli to induce bone intramuscularly and to 2) screen for the effects of inflammatory stimuli on BMP-induced bone formation subcutaneously. The bone volume (area%) in the BCP constructs was the primary outcome after 12 weeks.
# Fibrin glue (Tissucol 500®, Baxter, Deerfield, Ill., USA) was subsequently used (55 μl volume) to load the inflammatory mediators onto the constructs. […]
# After shaving and disinfecting the skin with 10% povidone-iodine, a midline incision was made to expose the paraspinal muscles. […] The incorporation of fluorochromes in the bone was examined by fluorescence microscopy on methyl methacrylate-embedded sections. […]
# After retrieval of the constructs, a quarter of each sample was removed for decalcification and paraffin embedding. […] The samples were completely sectioned and scored for the presence of bone. Two mid-sections were pseudo-coloured in Adobe Photoshop CS6 (Adobe Systems, San Jose, USA) to quantify the percentage of bone in the available pore space (bone area %). […]
# [2] = system: rabbits; assay: BMP-2 induced bone formation in subcutaneously implanted BCP constructs, biomembrane pocket model; format: in vivo, rabbit
# Procedure: For the comparative study (Table 2), inflammatory stimuli were added to the BCP, alone or in combination with BMP-2. Either 1.5 μg of BMP-2 or PBS (15 μl volume) was first applied. Fibrin glue (Tissucol 500®, Baxter, Deerfield, Ill., USA) was subsequently used (55 μl volume) to load the inflammatory mediators onto the constructs. For this purpose, the mediators were resuspended in 27.5 μl of the thrombin component (diluted 1:50 in PBS), then mixed with 27.5 μl of the fibrinogen component (diluted 1:30 in PBS) and immediately pipetted onto the BCP scaffolds. The control samples were treated with fibrin glue alone. The constructs were prepared on the day of surgery and stored in a humidified environment at 37° C. until implantation.
# After shaving and disinfecting the skin with 10% povidone-iodine, a midline incision was made to expose the paraspinal muscles. In the rabbits, four intramuscular pockets were created on each side by blunt dissection for implantation of the PMMA discs (FIG. 2B). The same discs were implanted in subcutaneous pockets via the same approach. Pockets were closed with a non-resorbable suture (Prolene®, Ethicon, USA), followed by closure of the skin (Monocryl®, Ethicon). At the second surgery, an incision was made in the membrane surrounding the PMMA disc, the disc was replaced by a BCP construct, and the opening was sutured (Prolene®, Ethicon). […] Fluorochrome labels were injected subcutaneously to determine the onset and location of new bone formation (van Gaalen et al., 2010): calcein green (10 mg/kg s.c. in 0.2 M NaHCO3, Sigma), oxytetracycline (25 mg/kg s.c. in 50/50 PBS/demineralised water, Merck Millipore, Billerica, USA) xylenol orange (30 mg/kg s.c. in 0.12 M NaHCO3, Sigma). The incorporation of fluorochromes in the bone was examined by fluorescence microscopy on methyl methacrylate-embedded sections. The rabbits were killed 12 weeks after the second surgery under general anesthesia, by intravenous Pentobarbital (Euthanimal®, Alfasan Nederland BV, Woerden, The Netherlands). The rats were killed with CO2, 8 weeks after the second surgery.
# After retrieval of the constructs, a quarter of each sample was removed for decalcification and paraffin embedding. The remaining material was fixed in 4% paraformaldehyde, dehydrated by an ethanol series and embedded in methyl methacrylate (MMA, Merck Millipore).
substance,measurement,setting,value
TNF-α,concentration dependence of bone induction,[1],no concentration dependence
same,number of constructs with bone formation,[1],2 constructs
same,bone area %,"[2]; 10 ng TNF-α with 1.5 μg BMP-2, subcutaneous, 12 weeks, p=0.005 vs control",13.6±9.9 area %
same,4-week fluorochrome label (calcein) incorporation in bone,[2]; BCP constructs with 1.5 μg BMP-2 and 10 ng TNF-α vs BMP-2 alone,observed less frequently
same,8-week fluorochrome label (xylenol orange) incorporation in bone,"[2]; BCP constructs with 1.5 μg BMP-2 and 10 ng TNF-α vs BMP-2 alone, gross examination",more abundant
same,effect on BMP-2 induced bone formation (in words),"[2]; all doses, with 1.5 μg BMP-2, subcutaneous, 12 weeks",stimulatory effect
same,bone formation at a higher concentration of TNF-α,"[2]; higher than 10 ng TNF-α, with 1.5 μg BMP-2, subcutaneous, 12 weeks",reduction of bone formation
